Test results published in EP2128622A1, “Means and methods for diagnosing metastasising potentials of tumor cells” (DKFZ Deutsches Krebsforschungszentrum, priority 2008, dated 2009).
Numbered stars: 1 amine (or outer) side, 2 acyl side, 3 side chain; on linkers, the order of the positions; unused ones are H or OH. Bridge positions count the residues as written; N and C are the ends. Square brackets hold non-standard residues; d marks the D form. Peptide text beside a SMILES is read from it. I, II: the chains in the order shown. Actinocin(9to1) = Cc1c2oc3c(C)ccc(C(=O)[*:1])c3nc-2c(C(=O)[*:2])c(N)c1=O; NMeV = CN[C@H](C(=O)O)C(C)C; Sar = CNCC(=O)O

Key:
HaCaT cells [1] = test: Migration assay (scratch assay, model for wound healing); assay type: cell-based, human
Experimental: Using a human keratinocyte cell line (HaCaT) in a Scratch-Assay as a model for wound healing, different model-predicted points of interference were tested. First it was confirmed that HGF-induced migration predominantly depends on a transcriptional response.
Immortalized human keratinocytes (HaCaT cells) were cultured in monoculture with DMEM (10% FCS, 100 U/ml penicillin, 100 µg/ml streptomycin). Subsequently, the cell monolayer was damaged with a 'scratch' using a pipette tip and cells were treated with 5 µg/ml mitomycin c (Sigma-Aldrich) for three hours before stimulation. Cells were stimulated at indicated time points and periods with cytokines and/or inhibitors: 10 ng/ml HGF, (R&D Systems), 1 ng/ml EGF (R&D Systems), 150 nM Tyrphostin AG1473 (Biomol) (EGF-R inhibitor) or 1 µM GW 2974 (Sigma) (EGF-R inhibitor), […] Meloxicam (Biomol) (PTGS-2 inhibitor), 0.5 µM H-89 (Calbiochem) (PKA inhibitor) or 10 µM Myristoylated PKI (14-22) amide, cell-permeable PKA inhibitor (Biomol), 200 µM 8-(4-Chlorophenylthio)adenosine 3',5'-cyclic monophosphate sodium salt (Sigma) (PKA activator) and incubated for further 30 hours. Relative migratory activity was determined by measuring migration distance during culture using standard protocols.

HaCaT cells [2] = test: MTT-viability assay; assay type: cell-based, human; conditions: under Actinomycin D treatment; data not shown

## Cc1c2oc3c(C)ccc(C(=O)N[C@@H]4C(=O)N[C@H](C(C)C)C(=O)N5CCC[C@H]5C(=O)N(C)CC(=O)N(C)[C@@H](C(C)C)C(=O)O[C@@H]4C)c3nc-2c(C(=O)N[C@@H]2C(=O)N[C@H](C(C)C)C(=O)N3CCC[C@H]3C(=O)N(C)CC(=O)N(C)[C@@H](C(C)C)C(=O)O[C@@H]2C)c(N)c1=O [Actimocyin D, Actinomycin D] (I: T[dV]P[Sar][NMeV] / II: T[dV]P[Sar][NMeV]; ester I:1-I:C, II:1-II:C; linker I:N-II:N via Actinocin(9to1))
HaCaT cells [1]; Fig. 2B, prolonged incubation (30 h) with 10 ng/ml recombinant human HGF plus Actinomycin D 5 µg/ml
  migratory response to HGF: abolished any migratory response to HGF
HaCaT cells [2]
  cell viability: still viable

## CN(C)c1cc2c(Nc3ccc4c(cnn4Cc4ccccc4)c3)ncnc2cn1 [GW2974]
HaCaT cells [1]; Fig. 3G, 1 µM GW 2974 simultaneous to 10 ng/ml HGF, 30 h
  HGF-induced migration: abolish HGF-induced migration

## O=S(=O)(NCCNC/C=C/c1ccc(Br)cc1)c1cccc2cnccc12 [H-89]
HaCaT cells [1]; Fig. 6C, 0.5 µM at the time of HGF stimulation
  HGF-induced migration: slightly increases migration
HaCaT cells [1]; Fig. 6C, 0.5 µM directly after HGF pulse stimulation (1.5 h)
  development of a migratory response: does not alter development of a migratory response
HaCaT cells [1]; Fig. 6C, PKA inhibition after 22 h, when cells already developed a full migratory response
  further migration: delays further migration

## Nc1ncnc2c1nc(Sc1ccc(Cl)cc1)n2[C@@H]1O[C@@H]2COP(=O)([O-])O[C@H]2[C@H]1O.[Na+] [8-(4-Chlorophenylthio)adenosine 3',5'-cyclic monophosphate sodium salt]
HaCaT cells [1]; Fig. 6C, 200 µM added at different time points with respect to HGF pulse stimulation (10 ng/ml for 1.5h)
  HGF-induced HaCaT migration: strongly decreases
